System: myocardium
Protocol: Sixteen closed-chest studies were performed in 6 healthy, adult mongrel dogs of both sexes weighing 15 to 30 kg. The dogs were maintained on a standard laboratory diet which was discontinued 24 hours prior to study. The animals were anesthetized using a combination of xylazine and sodium pentobarbital. Transmission cross-sectional scans of the chest area were performed on each dog with an ECAT II scanner using a ^68 Ge ring source with medium resolution filters and standard shadow shields. Measured attenuation coefficients were used for reconstructing the emission tomographs. […] Serial scans of the heart from base to apex in 10-15 mm steps were made starting 3-5 minutes after injection. After each series was completed, the ECAT II bed was returned to the original position and the dogs were rescanned. This procedure was repeated over a 2 to 4 hour period. Each set of scans required approximately 1 hour for 6 slices, so that 2 to 4 sets of images were obtained in each study. Sequential images were also obtained through a 20-mm section of the heart over a 2-hour period. Additional images from 1 dog were obtained using the new high-resolution ECAT III scanner. […] The animals were injected through a cannula or catheter in the leg and heparanized venous blood samples were removed from the opposite side. Known aliquots of whole blood, plasma, and erythrocytes were assayed in a well-type scintillation counter to determine the ^64 Cu levels present in the different components.

copper-64 citrate [^64 Cu citrate]
image quality with the PET (^64 Cu citrate, PET): unexpectedly distinct image
useful images of the myocardium (dog): yields useful images of the myocardium
uptake by the myocardium (dog, intravenous, tomographic images): rapid and uniform uptake of the compound throughout the myocardium
uptake by myocardial tissue over time (dog, over the time periods studied): occurs quite rapidly and remains constant over the time periods studied
visibility of the left ventricle in the emission scan (dog, transverse section): very distinctly
visibility of the right ventricle in the emission scan (dog, transverse section): less clearly seen

— patent US4756904A (Oak Ridge Associated Universities, Inc., priority 1986, dated 1988)
